Where a name gives a salt, the structure may show the parent alone. Where a SMILES comes first, the peptide text is derived from it. The star is where a group is joined. Cbz = O=C(OCc1ccccc1)*; CH2F = FC*

Common to all, as to assay type: cell-based
In data set [1] the test system is p53. In words: p53 western blot in p53 null U87 cells treated with doxorubicin. As to conditions: p53 null U87 cells (KO #4). How it is done:
To generate p53 knockout clones, U87 cells (7×10^5) were transfected with 2 μg p53 CRISPR/Cas9 KO plasmid (Santa Cruz Biotech™, sc-416469) using Lipofectamine 2000 (ThermoFisher™). Two days later, cells were treated with Nutlin-3 (10 μM) for 12 days to inhibit proliferation of cells with wild type p53, thereby enriching for p53 knockout cells. Single-cell clones were selected via limiting dilution, and p53 knockout clones were confirmed by western blotting using p53 antibody (FL-393).
To further validate the dependency of vacuolization on p53, two p53 null cell lines were generated using CRISPR. First, the cells lack of p53 was validated by treating them doxorubicin, […]. […] See FIG. 31, which is a WB showing p53 levels in wtp53 U87 (WT p53) cells and in p53 null U87 cells treated with DMSO (KO #4+DMSO) or DOX (KO #4+DOX).

Data set [2] relates to U87 cells. In words: TUNEL assay for DNA breaks. To be noted: vs control. On the procedure: Cells were treated with control and C9 siRNA for three days. On day three, cells were collected for TUNEL assay using the FlowTACS kit (TREVIGEN™, 4817-60-K) according to manufacturer's instructions to detect DNA fragmentation. For a positive control, DNA damage was induced using doxorubicin. Data were collected on a FACSCalibur™ flow cytometer (Becton Dickinson™) and data analysis performed on FlowJo™.
ROS can cause oxidative DNA damage. Since elevated ROS levels were observed under C9 KD conditions, it may cause increase in DNA damage. To test this hypothesis, a TUNEL assay was used to measure DNA breaks. […] In addition to C9KD, U87 cells were treated with a known chemotherapeutic DNA damage-inducing drug to serve as a positive control for DNA damage (see FIG. 23). FIG. 23 presents data for the TUNEL assay of U87 cells treated as described for FIG. 21 and for positive DNA-damage control with 0.5 μM doxorubicin (DOX). FIG. 23A presents data for the percentage of cells with DNA fragmentation (shown by DNA damage) comparing control (siCtrl) C9 KD (siC9; SEQ ID NO:631) and DOX-treated cells as measured by FACS analysis. […] FIG. 24 is a set of graphs showing data for cells treated as described for FIG. 23, with the exception of using a different C9 siRNA, indicated as siC9 #2 (SEQ ID NO:633).

The test system of data set [3] is p53. In words: Western blot of phospho-p53, p53 and p21. As to conditions: U87 cells. How it is done:
For Western blot analysis, cells were lysed with lysis buffer (20 mM sodium phosphate (pH 7.0), 250 mM NaCl, 30 mM sodium pyrophosphate, 0.1% Nonidet™ P-40, 5 mM EDTA, 10 mM NaF, 0.1 mM Na3VO4, and 1 mM PMSF) supplemented with complete protease inhibitors (Roche™) and homogenized by passage through a 28 gauge needle. Protein concentration was measured with a Bio-Rad™ protein assay dye reagent and results were read using a spectrophotometer (BiophotometerPlus™ by Eppendorf™). Protein extracts were resolved by SDS PAGE on gradient (Thermo Fisher™) or 12% gels. Proteins were then electrotransferred at 350 mA for 80 minutes onto a PVDF membrane (Immobilon-P PVDF). Membranes were blocked with PBST with 5% milk and 1% BSA for 30 minutes. Quantitation of blots was performed Image Studio Lite software (LI-COR Biosciences™).
One of the responses to DNA damage is activation of p53 by ATM. Upon DNA damage, ATM activation leads to p53 phosphorylation, which activates p53 as a transcription factor. Since increased DNA damage was observed upon C9 KD, whether p53 is activated in C9 depleted cells was investigated. First, total p53 levels were measured in U87 cells treated with control and two independent siRNAs against C9. […] Then, the levels of phosphorylated (active) p53 (at s15) was measured. Phosphorylation of s15 on p53 was increased in both C9 siRNA samples.
(In general: In western blotting, separated proteins are transferred to a membrane and probed.)

The subject of data set [4] is U87 cells. As to the kind of experiment: RAC1 inhibition with NSC23766, vacuoles per cell. To be noted: C9 KD U87 cells, 100 μM NSC23766 vs DMSO, 3 days. On the procedure: Macropinocytosis is known to depends on RAC1 activation which induces membrane ruffling (through actin rearrangement) that mature into macropinosomes. If the accumulated vacuoles are of macropinocytotic origin, then inhibition of RAC1 should rescue their accumulation. To test this, cells were treated with control or C9 siRNA in combination with NSC23766 (NSC), a RAC1 inhibitor.
FIG. 11A, FIG. 11B, FIG. 11C and FIG. 11D are a set of phase contrast images (20×) of U87 cells treated with control or C9 siRNA (SEQ ID NO:631) and incubated in DMSO (siCtrl+DMSO and siC9+DMSO, respectively) or in 100 μM RAC1 inhibitor NSC23766 (siCtrl+NSC and siC9+NSC, respectively). The scale bar represents 10 μm. […] FIG. 12 is a graph representing quantitation of the data for U87 cells treated with control (n=76) siRNA and DMSO (blue dots), U87 cells treated with C9 siRNA (n=41) with DMSO (red squares), U87 cells treated with control (n=74) siRNA and 100 μm of NSC (green dots), and U87 cells treated with C9 siRNA (n=73) with 100 μm of NSC (purple dots). Statistical significance was assessed by an unpaired t-test: NS P>0.05, *P≤0.05, **P≤0.01, ***P≤0.001 ****P≤0.0001.

For data set [5], the system named is U87 cells. In words: Viability rescue with caspase inhibitor Z-VAD-FMK. How it is done: For viability assays (performed in 6-well plates), cells were harvested using trypsin (0.5 ml per well) and the media were saved from each well. The saved media was re-suspended with the trypsinised cells and 2-3 aliquots (50 μL each) of this suspension were taken into a 96-well plates. CellTiter-Glo™ (CTG) Luminescent Viability assay was used to measure the viability of these aliquots. CTG-media mixture (150 μL) were added to each well. The rest of the culture was used to extract protein. The viability of cells was measured using the 1:1 dilution of the CellTiter-Glo™ Luminescent reagent (Promega™, cat #G7573) with media, which was read on Victor™ 5 plate reader after 10 minutes of shaking at room temperature. The intensity of luminescence was normalized to that of the DMSO (Sigma™, D5879) control.
To confirm that cells undergo non-apoptotic death, apoptosis was blocked with a broad caspase inhibitor Z-VAD-FMK upon C9 KD. […] Additionally, the apoptosis inducer, staurosporine (STS), was used to asses Z-VAD-FMK efficacy. […] A beta galactosidase staining technique was used to asses senescence upon C9 KD. […] See FIG. 20, for which U87 cells were treated with control (siCtrl) and C9 (siC9; SEQ ID NO:631) siRNA and then subjected to β-Galactosidase Staining.

Data set [6] relates to U87 cells. As to the kind of experiment: Macropinocytosis inhibition with EIPA. As to conditions: C9 KD U87 cells, 20 μM EIPA vs DMSO. On the procedure: Cell were treated with control and C9 siRNA. After 6 hours, media were replaced and control and siC9 cells were either treated with DMSO or with 20 μM 5-(N-Ethyl-N-isopropyl) amiloride (Sigma™, A3085). After 3 days, cells were then imaged using Nikon Eclipse™ Ts2-FL Inverted Fluorescence Microscope and vacuoles from images were quantitated using ImageJ™.
In another study to further confirm the macropinocytotic origin of the vacuoles, 5-(N-ethyl-N-isopropyl) amiloride (EIPA), a macropinocytosis inhibitor was used.
FIG. 9 presents phase contrast images (40×) of U87 cells treated with control or C9 siRNA (SEQ ID NO;631) and incubated in DMSO (siCtrl+DMSO and siC9+DMSO, respectively) or in 20 μM Amiloride (siCtrl+EIPA 20 μM and siC9+EIPA 20 μM, respectively). The scale bar represents 10 μm. WB on the right represents C9 KD efficiency in EIPA treated U87 cells. […] Statistical significance was assessed by an unpaired t-test: NS P>0.05, *P≤0.05, **P≤0.01, ***P≤0.001 ****P≤0.0001.

For the compound `COc1cccc2c1C(=O)c1c(O)c3c(c(O)c1C2=O)C[C@@](O)(C(=O)CO)C[C@@H]3O[C@H]1C[C@H](N)[C@H](O)[C@H](C)O1` [doxorubicin, Doxorubicin hydrochloride], the p53 accumulation entry with p53 [1] is recorded as “did not induce p53 accumulation”.
Take “siC9 #2: siRNA targeting C9 mRNA: GCACAUAUGGACUAUCAAUtt (SEQ ID NO:633; sense) and AUUGAUAGUCCAUAUGUGCtg (SEQ ID NO:634; antisense) (sense GCACAUAUGGACUAUCAAUTT; antisense AUUGAUAGUCCAUAUGUGCTG; chemistry not given here)”: in the data set with U87 cells [2], the “DNA breaks (TUNEL)” value is “increase in DNA breaks”. In addition, in the data set on p53 [3], the p21 protein levels result is reported as “increased p21 protein levels”, the “phosphorylation of s15 on p53” value is on record as “increased” and the “total p53 levels” value is “elevates p53 levels”.
Turning to `CCN(CC)CCCC(C)Nc1nc(C)cc(Nc2ccc3nc(C)cc(N)c3c2)n1` (stereo not drawn) [NSC23766], the vacuoles per cell entry with U87 cells [4] is recorded as “significant drop in vacuoles”.
With `COC(=O)C[C@H](NC(=O)[C@H](C)NC(=O)[C@@H](NC(=O)OCc1ccccc1)C(C)C)C(=O)CF` [Z-VAD-FMK] (Cbz-Val-Ala-Asp(OMe)-CH2F), the “rescue of cell viability” value with U87 cells [5] (C9 KD U87 cells) is “did not significantly rescue”; with U87 cells [5] (staurosporine (STS) treated U87 cells) it was “able rescue viability”.
Turning to `CCN(c1nc(N)c(C(=O)NC(=N)N)nc1Cl)C(C)C` [EIPA, 5-(N-ethyl-N-isopropyl) amiloride], the vacuole formation result with U87 cells [6] was “significant inhibition of vacuole formation”.

These data come from patent publication US20210108199A1, “Treatment for aggressive cancers by targeting C9ORF72” (The Trustees of Columbia University in the City of New York, priority 2017, published 2021).
